Here are results for five compounds from patent US20230203058A1, “MACROCYCLIC DIAMINE DERIVATIVES AS ENT INHIBITORS FOR THE TREATMENT OF CANCERS, AND COMBINATION THEREOF WITH ADENOSINE RECEPTOR ANTAGONISTS” (ITEOS BELGIUM SA, priority 2020, published 2023).

Read-outs that look alike come from different tables or passages of the source.

In assay [1] the target is T1, human ENT1 (Homo sapiens, UniProt Q99808).
T1 sequence (Q99808 1-456): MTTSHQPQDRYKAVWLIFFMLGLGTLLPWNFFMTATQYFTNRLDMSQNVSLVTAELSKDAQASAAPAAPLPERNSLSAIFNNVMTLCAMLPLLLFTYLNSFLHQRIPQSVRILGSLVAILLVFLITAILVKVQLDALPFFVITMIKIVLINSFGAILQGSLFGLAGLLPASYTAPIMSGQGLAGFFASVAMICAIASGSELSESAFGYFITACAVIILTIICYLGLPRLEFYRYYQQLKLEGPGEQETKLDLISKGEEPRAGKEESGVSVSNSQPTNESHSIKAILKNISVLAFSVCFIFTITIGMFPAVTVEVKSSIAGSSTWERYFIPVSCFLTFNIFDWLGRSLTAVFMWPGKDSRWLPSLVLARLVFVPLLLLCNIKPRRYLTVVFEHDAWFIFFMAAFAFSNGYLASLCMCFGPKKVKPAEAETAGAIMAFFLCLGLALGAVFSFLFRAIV
Briefly: Uridine transport inhibition assay (3H-uridine uptake in MDCKII-ENT1-LV cells). The class given is cell-based. Conditions: uridine 1 µM, 1 min at 25° C. The source says: The aim of this study was to determine the potency of equilibrative nucleoside transporter 1 (ENT1) inhibitors by measuring ENT1-mediated transport is the cellular uptake assay. The human ENT1 transporter can be stably expressed in Madin-Darby Canine Kidney II (MDCKII) cells via transduction. Uridine is efficiently transported by ENT1 and is used as probe in the assay as 3 H-uridine. The interaction is detected as the modulation of the initial rate of 3 H-uridine transport by human ENT1 into MDCKII-ENT1-LV cells stably expressing ENT1 uptake transporter.

In assay [2] the test system is stimulated primary human T cells. In words: T cell proliferation assay (rescue of proliferation in presence of ATP, CFSE dilution). The class given is cell-based. Conditions: 100 uM ATP. The protocol:
The aim of this study was to determine the potency of equilibrative nucleoside transporter 1 (ENT1) inhibitors to rescue proliferation by stimulated primary human T cells incubated in the presence of 100 uM Adenosine triphosphate (ATP), in baseline conditions (condition A) or in the presence of various proteins known to bind small molecules (condition B). Condition A: X-VIVO15 Condition B: X-VIVO15, 2% Human Serum Albumine (HSA) and 0,1% α-1-Acid Glycoprotein (AAG)
Cryopreserved purified human CD3+ T cells were thawed and washed twice with RPMI1640 medium, UltraGlutamine containing 10% hiFBS.
Cells were suspended in PBS containing 10% hiFBS. Cells were stained with CFSE by adding 2 µM solution in PBS, to get a final 1 µM CFSE solution. Cells were incubated while rotating for 5 minutes. Reaction was stopped by adding PBS with 10% FBS and cells were centrifuged for 5 minutes at 1500 rpm.
Cells were resuspended at 1.6 ×10^6 cells/mL, either in X-VIVO15 medium or in 4% Human Serum Albumin and 0,2% α-1-Acid Glycoprotein. 50 µL of cell suspension (8×10^4 T cells) was added to wells of sterile round-bottom 96-well plates. Cells were activated by adding 50 µL of anti-CD3 anti-CD28 coated microbeads, suspended either in XVIVO-15 medium or in 4% HSA and 0,2% α-1-Acid Glycoprotein, at a ratio of one microbead per two cells. Serial dilutions of the ENT1 inhibitors were prepared in X-VIVO15 from 10 mM stock solutions in DMSO, and 50 µL was added to the wells. ATP powder was diluted in X-VIVO15, and 50 µL of this compound was added to the wells to reach a final assay concentration of 100 µM. Final volume of 200 µL. The experiments were also performed in 384 well plates - all volumes reduced by a factor of 4 (12,5 µL) with a final volume of 50 µL. Experiments were performed in duplicate. The cells were placed in a 37° C. humidified tissue culture incubator with 5% CO2 for 72 hours for 96 well plates, 96 hours for 384 well plates. After 72 or 96 hours, proliferation was measured determined by CFSE dilution via flow cytometry.

In assay [3] the target is T2, hERG ion channel (Homo sapiens, UniProt Q12809).
T2 construct: Chinese Hamster Ovary cell lines stably expressing the full-length ion channel; expressed in transfected cells
T2 sequence (Q12809 whole entry): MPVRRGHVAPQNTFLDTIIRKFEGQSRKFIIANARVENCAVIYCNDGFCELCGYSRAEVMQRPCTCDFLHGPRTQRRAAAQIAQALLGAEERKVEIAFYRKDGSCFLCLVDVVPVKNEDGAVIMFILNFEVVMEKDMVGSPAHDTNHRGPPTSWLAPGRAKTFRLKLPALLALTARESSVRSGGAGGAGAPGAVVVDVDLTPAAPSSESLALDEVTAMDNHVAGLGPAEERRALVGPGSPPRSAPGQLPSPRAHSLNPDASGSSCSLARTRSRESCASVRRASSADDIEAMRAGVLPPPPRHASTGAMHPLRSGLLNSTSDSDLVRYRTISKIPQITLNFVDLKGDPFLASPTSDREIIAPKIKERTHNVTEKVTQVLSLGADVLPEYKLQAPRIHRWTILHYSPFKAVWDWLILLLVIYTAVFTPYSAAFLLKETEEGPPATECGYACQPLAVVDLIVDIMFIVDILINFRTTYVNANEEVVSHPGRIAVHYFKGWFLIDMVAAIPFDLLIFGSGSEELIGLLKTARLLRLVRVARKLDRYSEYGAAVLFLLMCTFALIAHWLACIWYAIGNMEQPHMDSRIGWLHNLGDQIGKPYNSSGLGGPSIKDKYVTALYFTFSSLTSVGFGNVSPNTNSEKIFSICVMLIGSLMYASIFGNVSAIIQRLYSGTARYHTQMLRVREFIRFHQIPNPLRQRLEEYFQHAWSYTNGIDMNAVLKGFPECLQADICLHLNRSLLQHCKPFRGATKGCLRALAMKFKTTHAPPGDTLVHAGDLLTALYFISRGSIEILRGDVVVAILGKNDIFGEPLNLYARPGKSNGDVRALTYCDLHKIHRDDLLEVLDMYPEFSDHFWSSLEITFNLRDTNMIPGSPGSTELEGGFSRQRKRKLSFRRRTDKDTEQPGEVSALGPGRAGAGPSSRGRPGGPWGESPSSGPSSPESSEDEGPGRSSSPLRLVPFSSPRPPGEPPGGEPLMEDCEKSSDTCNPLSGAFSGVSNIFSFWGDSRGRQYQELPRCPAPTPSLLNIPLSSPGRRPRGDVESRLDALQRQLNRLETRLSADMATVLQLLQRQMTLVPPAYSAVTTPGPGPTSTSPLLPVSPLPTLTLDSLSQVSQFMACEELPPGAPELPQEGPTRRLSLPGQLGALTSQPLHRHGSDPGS
In words: hERG ion channel inhibition (Patchliner automated patch-clamp, CHO cells). The class given is cell-based. Conditions: whole-cell, room temperature, 6-point curve up to 100 µM. The protocol:
The compounds were tested for inhibition of hERG ion channel. 6-Point concentration-response curves were generated on the Patchliner automated patch-clamp using serial dilutions from a maximum test concentration of 100 µM.
Compounds were solubilised to 33 mM in DMSO before dilution in HBPS to 100 µM. 6-Point concentration-response curves were generated using serial dilutions from the top test concentration. Electrophysiological recordings were made from a Chinese Hamster Ovary cell lines stably expressing the full-length ion channel. Single cell ionic currents were measured in whole-cell configuration at room temperature (21-23° C.) using a Patchliner (Nanion Technologies). The internal solution for hERG contained (mM): 120 KF, 20 KCl, 10 EGTA, 10 HEPES and was buffered to pH 7.3. The external solution (HEPES-buffered saline, HBPS) contained (mM): 138 NaCl, 4.5 KCl, 1.8 CaC12, 1.0 MgC12, 10 HEPES, 10 glucose, buffered to pH7.4. Cells were clamped at a holding potential of -80 mV before a depolarising step appropriate for the hERG channel. Currents were measured from the step and referenced to the holding current. Compounds were incubated for 90 seconds. Concentration-response curves were generated by cumulative addition of compound with concentrations low to high. In all cases, steady-state inhibition was achieved before the next concentration of compound was added.
IC50 values were obtained from a 4-parameter logistic fit of the concentration-response data: […]
Background: Block of hERG is tested as a sign of cardiac risk.

Assay [4] deals with T1, human ENT1. Briefly: ENT1 binding assay (competition with Sahenta-DY647 on JAR cells). On the set-up: JAR cells expressing ENT1 were bought from ATCC® (HTB-144TM); host or cells: JAR cells (human choriocarcinoma line; whole cells). The note with it: competition with Sahenta-DY647 100 nM, 4° C. The method in brief:
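Competition binding on intact JAR cells (50000 per well) in HBSS with 10 mM Hepes and 0.1% BSA. Cells pre-incubated with compound 30 min at 4 °C, then Sahenta-DY647 added at its IC90 (100 nM) for another 30 min at 4 °C; after washing, fluorescence read at Ex 630/Em 670 nm.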

Assay [5] concerns human T cells. In words: T cell stimulation assay (Example III, FIG. 1). The note with it: ATP 100 µM. The class given is cell-based. On the procedure: FIG. 1A depicts a graph of log concentration (M) versus percent proliferation. Purified human T cells were activated with anti-CD3/CD28 dynabeads in the presence of ATP (100 µM) as a source of adenosine for 96 h and then proliferation was assessed by CFSE dilution.
FIG. 1B depicts a graph of log concentration of ENT1 inhibitor (M) versus percent proliferation. Experiment performed as in FIG. A with the addition of HSA and AAG to the culture medium (final concentration 2 and 0.1%, respectively).
Peripheral blood mononuclear cells (PBMCs) were first isolated via centrifugation of fresh whole blood over Lymphoprep using SepMate-50 tubes (both from […] Technologies) according to the manufacturer’s instructions. Human T cells were then isolated from the PBMCs using the EasySep Human T cell Isolation Kit ([…] Technologies) according to the manufacturer’s instructions and the cells were cryopreserved in FBS with 10% DMSO until required.
Cryopreserved human T cells were thawed on the day of the experiment and resuspended in PBS with 10% FBS at approximately 1 × 10^7 cells/ml. This cell suspension was diluted 1:1 with 2 µM CFSE solution (ThermoFisher Scientific) in PBS and incubated for 5 minutes at room temperature. The labelling reaction was quenched by further addition of PBS with 10% FBS, and then the cells were washed into X-VIVO15 medium (Lonza) for use in the T cell assay.
CFSE-labelled T cells were plated at 2 × 10^4 cells per well in 384 well plates in the presence of ATP (100 µM, Sigma-Aldrich) as a source of adenosine. Activation was driven by the addition of Dynabeads Human T-Activator CD3/CD28 (ThermoFisher Scientific) at a ratio of 0,5 beads per T cell. ENT1 inhibitor molecules including the reference molecule dilazep (Tocris Bioscience) were added, the volume of the wells was adjusted to 50 µl with X-VIVO15 medium and the plates were cultured in a humidified incubator for 96 h at 37° C. with 5% CO2. In some experiments the culture was supplemented with human serum albumin (HSA) and alpha-1-acid glycoprotein (AAG, both Sigma-Aldrich) at final concentrations of 2 and 0,1%, respectively.
Analysis of proliferation via CSFE dilution was performed by flow cytometry using a BD LSR Fortessa with data analysis on FlowJo (BD Biosciences).

The test system of assay [6] is MCA205 cells. In words: Syngeneic fibrosarcoma model (MCA205, FIG. 4). The class given is in vivo, C57BL/6 mice. On the procedure: FIG. 4 consists of three graphs: A, B, and C depicting the evalution of to assess the anti-tumor efficacy of compound Compound 8 in syngeneic fibrosarcoma model.
To assess the anti-tumor efficacy of compound Compound 8 in syngeneic fibrosarcoma model, C57BL/6 (n=8) were subcutaneously inoculated with […] MCA205 cells in the right flank. At day 8 after inoculation the mice were randomized according tumor size and received oral treatment of Compound 8 at 10 mg/kg or its vehicle. The mice were monitored 3 times a week for tumor measurements, and the data plotted below. […] (FIG. 4B and FIG. 4C) At day 21 after inoculation, 57% of the mice treated with 10 mg/kg of Compound 8 were responsive to Compound 8 treatment and at day 31 15% of the mice presented significant tumor growth delay with tumors below 1000 mm^3. The statistical analysis was performed in JMP software using linear fixed model.

[7] abbreviates: Condition A: X-VIVO15, read-out: T Cell proliferation (Condition A) IC50.
Where [8] appears, read: Condition B: X-VIVO15, 2% HSA and 0,1% AAG, read-out: (2) T Cell proliferation (Condition B) IC50.
The mark [9] stands for this setting: anti-CD3/CD28 dynabeads, 96 h (FIG. 1A), read-out: IC50 of restoration of T cell proliferation.
Where [10] appears, read: with HSA 2% and AAG 0,1% (FIG. 1B), read-out: IC50 of restoration of T cell proliferation under high protein binding conditions.

On to `COc1cc(C(=O)OC2CCCOc3cc(cc(OC)c3OC)C(=O)OCCCN3CCN(CC2)CC(F)(F)C3)cc(OC)c1OC` (stereo not shown) [Compound 4, 16,16-difluoro-74,75-dimethoxy-6-oxo-5,8-dioxa-1(1,4)-diazepana-7(1,3)-benzenacyclotetradecaphane-12-yl 3,4,5-trimethoxybenzoate], for which the IC50 was 0.001 to 0.02 µM in assay [1]; less than 0.001 µM in assay [2] (setting [7]); 0.001 to 0.02 µM in assay [2] (setting [8]); 73 µM in assay [3]; 0.001 to 0.02 µM in assay [4].
As for `COc1cc(C(=O)OC2CCCOc3cc(cc(OC)c3OC)C(=O)NCCCN3CCCN(CC2)CC3)cc(OC)c1OC` (stereo not shown) [Compound 8, 74,75-dimethoxy-6-oxo-8-oxa-5-aza-1(1,4)-diazepana-7(1,3)-benzenacyclotetradecaphane-12-yl 3,4,5-trimethoxybenzoate], the IC50 is 0.002 µM in assay [5] (setting [9]), 0.016 µM in assay [5] (setting [10]) and 0.001 to 0.02 µM in assay [4]. In addition, the “Median tumor growth kinetics versus vehicle” value in assay [6] (10 mg/kg oral (FIG. 4A)) is given as “slight change in tumor size”. The “Mice responsive to treatment” value in assay [6] (10 mg/kg oral, day 21 after inoculation) stood at 57%. In addition, the “Mice with significant tumor growth delay, tumors below 1000 mm^3” value in assay [6] (10 mg/kg oral, day 31 after inoculation) is reported as 15%.
In the case of `COc1cc(C(=O)O[C@@H]2CCCOc3cc(cc(OC)c3OC)C(=O)NCCCN3CCCN(CC2)CC3)cc(OC)c1OC` [Compound 10, (12R)-74,75-dimethoxy-6-oxo-8-oxa-5-aza-1(1,4)-diazepana-7(1,3)-benzenacyclotetradecaphane-12-yl 3,4,5-trimethoxybenzoate], the IC50 in assay [1] is 0.001 to 0.02 µM; in assay [2] (setting [7]) it was 0.001 to 0.02 µM; in assay [2] (setting [8]), 0.02 to 0.5 µM; in assay [3], 3.4 µM; in assay [4], 0.001 to 0.02 µM.
With `COc1cc(C(=O)O[C@@H]2CCCOc3cc(cc(OC)c3OC)C(=O)N(C)CCCN3CCCN(CC2)CC3)cc(OC)c1OC` [Compound 13, (12R)-74,75-dimethoxy-5-methyl-6-oxo-8-oxa-5-aza-1(1,4)-diazepana-7(1,3)-benzenacyclotetradecaphane-12-yl 3,4,5-trimethoxybenzoate], the IC50 in assay [1] is 0.001 to 0.02 µM; in assay [2] (setting [7]), 0.001 to 0.02 µM; in assay [2] (setting [8]) it was more than 0.5 µM; in assay [4], 0.001 to 0.02 µM.
In the case of `COc1cc(C(=O)OCCCN2CCCN(CCCOC(=O)c3cc(OC)c(OC)c(OC)c3)CC2)cc(OC)c1OC` [Dilazep, dilazep, reference compound], the IC50 in assay [2] (setting [7]) is 0.001 to 0.02 µM; in assay [2] (setting [8]), 0.02 to 0.5 µM; in assay [3] it was 0.9 µM; in assay [5] (setting [9]), 0.071 µM; in assay [5] (setting [10]), 0.337 µM.
